# Measured values taken from US20050025705A1, “Thrombosis animal models and their use in drug discovery and development” (priority 2003, published 2005).
# Where “and” joins values, the source holds several entries; their conditions need not be identical. Equal entries are not always repeated.
# Key:
# [1] = tested on: FeCl3-induced arterial thrombosis in C57BL/6 mice; experiment: FeCl3-induced carotid artery thrombosis in mice, Doppler blood flow (Example 2); assay type: in vivo; conditions: for efficacy in blocking thrombus formation: relatively high FeCl3 concentrations, unless an extremely high drug concentration was used
# Method: Mice were anesthetized with gas inhalation comprised of 30% oxygen (0.3 liter/min; Airgas East, Inc., Salem, N.H.) and 70% nitrous oxide (0.7 liter/min; Airgas East, Inc., Salem, N.H.). […] Louis, Mo.) to the adventitial surface of the carotid artery immediately proximal to the flow probe for 3 min and then removed. The carotid blood flow was monitored at 1, 5, 10, 20, 30 min or some times up to 60 min. Heparin was purchased from American Pharmaceutical Partners, Inc. (Los Angeles, Calif.); mice were infused with 10, 50, 200 and 1000 IU/kg, i.v. immediately prior to 2.5 or 5% FeCl3 treatment on the carotid artery. […] Aspirin (acetylsalicylic acid) and MRS2179 were purchased from Sigma. […] Data in text and figures are mean±standard errors for the indicated number (N) of animals.
# [2] = tested on: tail bleeding time in C57BL/6 mice; experiment: Mouse tail bleeding time
# Method: Mice were anesthetized as described above and placed on a 37° C. heating pad. About 2-4 mm from the tip of mouse tail (in about 1 mm diameter) was cut with a disposable surgical blade. After transection, the tail was immediately placed into a 50-ml falcon tube filled with 37° C. saline and the bleeding time was recorded up to 30 min. Bleeding time over 30 min was considered as bleeding off scale.
# Both thrombosis and bleeding studies were conducted within 2-4 hr after the second day of oral dosing.
# [3] = tested on: 5% FeCl3-induced arterial thrombosis in C57BL/6 mice
# Method: Adult mice (18-25 g, both male and female) were used for thrombosis study. Following anesthesia by pentobarbital (50 mg/kg, i.p.), an incision of the skin was made directly on top of the right common carotid artery region. The fascia was then blunt dissected and a segment of the […] common carotid artery was exposed. A Transonic flow probe (0.5 VB) was placed on the artery with gel to obtain the baseline flow readings (as time 0) via a Transonic […] Doppler flowmeter. Two pieces of filter paper (1×11⁄2 mm) pre-soaked with 5% FeCl3 solution were placed beneath and above the carotid artery for 3 min to induce thrombosis. The filter papers were removed and rinsed with saline. The blood flow was recorded every 5, 10, 20 and 30 min of FeCl3 treatment. […] Clopidogrel was administrated for two days. […] Data are illustrated as mean±standard errors using indicated number (N) of animals. Statistical comparisons were made by analysis of variance (ANOVA; Fisher's protected least squares difference) and values were considered to be significant at p<0.05.
# [4] = cited from earlier work
compound,measurement,setting,value
"CC(=O)Oc1ccccc1C(=O)O [aspirin, acetylsalicylic acid]",effect in blocking thrombosis,"[1]; 2.5% FeCl3-induced thrombosis, aspirin 10 and 30 mg/kg i.p.",Very little effect
same,efficacy in blocking thrombus formation,[1],failed to show efficacy
CNc1ncnc2c1ncn2[C@H]1C[C@H](OP(=O)(O)O)[C@@H](COP(=O)(O)O)O1 [MRS2179],effective dose,"[1]; 2.5% FeCl3-induced thrombosis, i.v.",150 mg/kg
same,potency in blocking FeCl3-induced thrombosis,"[1]; 2.5% FeCl3, compared with P2Y12 antagonists",less potent
same,efficacy in blocking thrombus formation,[1],failed to show efficacy
COC(=O)[C@H](c1ccccc1Cl)N1CCc2sccc2C1 [clopidogrel],prolongation in bleeding time,[2]; 1 mg/kg p.o.,no prolongation
same,animals bleeding off scale (over 30 min),[2]; 10 mg/kg p.o.,75%
same,increase in bleeding time,"[2]; 10 mg/kg p.o., p<0.01, n=8",11 fold and 10.9 fold
same,animals bleeding off scale (over 30 min),[2]; 30 mg/kg (data not shown),100%
same,protection from thrombosis,[3]; 10 mg/kg,failed to protect
same,animals that retained vascular patency,[3]; 100 mg/kg p.o.,6 out of 9
same,"AUC of the relative Doppler blood flow, over controls","[3]; 100 mg/kg p.o., p<0.01",3.7 fold
same,antithrombotic effect,[3]; clinically relevant dose 1 mg/kg p.o.,No antithrombotic effect
same,dose needed for antithrombotic effect,[3]; p.o.,> 30 mg/kg
same,vascular patency,"[1]; 2.5% FeCl3-induced thrombosis, 1 mg/kg p.o.",maintained in some
same,vascular patency (animals in which maintained),"[1]; 2.5% FeCl3-induced thrombosis, 3 mg/kg p.o.",all
same,dose required to show efficacy,"[1]; 5% FeCl3-induced thrombosis, p.o.",100 mg/kg
same,efficacy in blocking thrombus formation,[1],failed to show efficacy
CSCCNc1nc(SCCC(F)(F)F)nc2c1ncn2[C@@H]1O[C@H](COP(=O)(O)OP(=O)(O)C(Cl)(Cl)P(=O)(O)O)[C@@H](O)[C@H]1O [cangrelor],efficacy in 2.5% versus 5% FeCl3-induced thrombosis,[1]; 2.5% and 5% FeCl3,differential efficacy
same,efficacy in blocking thrombus formation,[1],failed to show efficacy
heparin,clotting activity,[4]; at concentrations greater than 4 ug/ml,not detectable
same,activated partial thromboplastin time (aPTT) assay times,[4]; at therapeutic range 1 to less than 3 ug/ml plasma,35 to 100 s
same,vascular patency,"[1]; 2.5% FeCl3-induced thrombosis, 200 IU/kg i.v.",maintained
same,dose required to inhibit thrombosis,"[1]; 5% FeCl3-induced thrombosis, i.v.",1000 IU/kg
same,efficacy in blocking thrombus formation,[1],failed to show efficacy
